Source: ChEMBL document CHEMBL6127141, “1-Deoxynojirimycin Derivative Containing Tegafur Induced HCT-116 Cell Apoptosis through Mitochondrial Dysfunction and Oxidative Stress Pathway” (ACS Med Chem Lett, 2024)
The source made the active and inactive calls. The rule behind the calls is not given here.

Tests used:
HCT-116 [1] = assay: Induction of apoptosis in human HCT-116 cells assessed as upregulation of Bax protein level at 10 uM incubated for 24 hrs by Western blot analysis; type: functional, cell-based
HeLa = assay: Cytotoxicity against human HeLa cells assessed as inhibition of cell proliferation incubated for 48 hrs by MTT assay; type: functional, cell-based
HCT-116 [2] = assay: Induction of oxidative stress in human HCT-116 cells assessed as decrease in Nrf2 level at 10 uM incubated for 24 hrs by Western blot analysis; type: functional, cell-based
HCT-116 [3] = assay: Induction of oxidative stress in human HCT-116 cells assessed as decrease in GSH concentration at 5 to 10 uM incubated for 24 hrs; type: functional, cell-based; settings: dose 5-10 µM
HCT-116 [4] = assay: Induction of oxidative stress in human HCT-116 cells assessed as increase in MDA level at 5 to 10 uM incubated for 24 hrs by Lipid Peroxidation MDA assay; type: functional, cell-based; settings: dose 5-10 µM
HCT-116 [5] = assay: Inhibition of colony formation in human HCT-116 cells at 5 to 10 uM incubated for 48 hrs by crystal purple staining based analysis; type: functional, cell-based; settings: dose 5-10 µM
HCT-116 [6] = assay: Induction of cell cycle arrest in human HCT-116 cells assessed as accumulation of cells at S phase at 10 uM incubated for 24 hrs by flow cytometric analysis (reference value: 4.7 %); type: functional
HCC1937 = assay: Cytotoxicity against human HCC1937 cells assessed as inhibition of cell proliferation incubated for 48 hrs by MTT assay; type: functional, cell-based; settings: HCC1937, 48 h
A549 = assay: Cytotoxicity against human A549 cells assessed as inhibition of cell proliferation incubated for 48 hrs by MTT assay; type: functional, cell-based; settings: A549, 48 h
HCT-116 [7] = assay: Induction of apoptosis in human HCT-116 cells assessed as cell contraction at 10 uM incubated for 24 hrs by Hoechst 33342 staining based fluorescence microscopic analysis; type: functional
L02 = assay: Cytotoxicity against human L02 cells assessed as inhibition of cell proliferation incubated for 48 hrs by MTT assay; type: functional, cell-based; settings: L02, 48 h
HCT-116 [8] = assay: Cytotoxicity against human HCT-116 cells assessed as inhibition of cell proliferation incubated for 48 hrs by MTT assay; type: functional, cell-based; settings: HCT-116, 48 h
HCT-116 [9] = assay: Induction of DNA damage in human HCT-116 cells assessed as increase in TS protein expression at 10 uM incubated for 24 hrs by Western blot analysis; type: functional, cell-based
HCT-116 [10] = assay: Induction of ROS accumulation in human HCT-116 cells assessed as increase in green fluorescence intensity at 5 to 10 uM incubated for 24 hrs by DCFH-DA staining based fluorescence microscopic analysis; type: functional, cell-based; settings: dose 5-10 µM
Mitochondrial membrane = assay: Induction of mitochondrial membrane potential loss in human HCT-116 cells assessed as decrease in red fluorescence at 10 uM incubated for 24 hrs by JC-1 staining based fluorescence microscopic analysis; type: cell membranes
HCT-116 [11] = assay: Induction of apoptosis in human HCT-116 cells assessed as appearance of bright blue appearance at 10 uM incubated for 24 hrs by Hoechst 33342 staining based fluorescence microscopic analysis; type: functional, cell-based
HCT-116 [12] = assay: Induction of apoptosis in human HCT-116 cells assessed as apoptotic cells at 10 uM incubated for 24 hrs by Annexin V-FITC/PI staining based flow cytometric analysis relative to control; type: functional
[13] = Lipophilicity, logP of compound in n-octanol saturated PBS incubated for 24 hrs by shake-flask method based ultraviolet spectrophotometry; type: physicochemical
HepG2 = assay: Cytotoxicity against human HepG2 cells assessed as inhibition of cell proliferation incubated for 48 hrs by MTT assay; type: functional, cell-based; settings: HepG2, 48 h
HCT-116 [14] = assay: Anti-metastatic activity in human HCT-116 cells assessed as inhibition of cell migration by measuring wound healing rate at 10 uM incubated for 24 hrs by inverted fluorescence microscopic analysis relative to control; type: functional; parameters: scale not given: the % may be the effect or the level left
BGC-823 = assay: Cytotoxicity against human BGC-823 cells assessed as inhibition of cell proliferation incubated for 48 hrs by MTT assay; type: functional, cell-based; settings: BGC-823, 48 h
HCT-116 [15] = assay: Induction of ROS accumulation in human HCT-116 cells assessed as increase in green fluorescence intensity at 5 to 10 uM preincubated with NAC for 3 hrs followed by compound addition and measured after 24 hrs by DCFH-DA staining based fluorescence microscopic analysis; type: functional, cell-based; settings: dose 5-10 µM
HCT-116 [16] = assay: Cytotoxicity against human HCT-116 cells assessed as inhibition of cell proliferation at 5 to 10 uM preincubated with NAC for 3 hrs followed by compound addition and measured after 48 hrs by MTT assay; type: functional, cell-based; settings: dose 5-10 µM
Alpha glucosidase = Alpha glucosidase (Homo sapiens, UniProt O43451+P10253+P14410+Q2M2H8); assay: Inhibition of alpha-glucosidase (unknown origin) using para-nitrophenyl-alpha-d-glucopyranoside as substrate preincubated for 5 mins followed by substrate addition and measured after 30 mins by microplate reader; type: protein assay
[17] = Potency index, ratio of 1-Deoxynojirimycin IC50 to test compound IC50 for cytotoxicity against human HCT-116 cells assessed as inhibition of cell proliferation incubated for 48 hrs by MTT assay; type: functional
HCT-116 [18] = assay: Induction of apoptosis in human HCT-116 cells assessed as downregulation of Bcl2 protein level at 10 uM incubated for 24 hrs by Western blot analysis; type: functional, cell-based
HCT-116 [19] = assay: Induction of oxidative stress in human HCT-116 cells assessed as decrease in SOD concentration at 5 to 10 uM incubated for 24 hrs; type: functional, cell-based; settings: dose 5-10 µM
[20] = Selectivity index, ratio of IC50 for cytotoxicity against human L02 cells to IC50 for cytotoxicity against human HCT-116 cells; type: toxicity, cell-based; settings: L02 cells and HCT-116 cells, read-out: Ratio IC50
HCT-116 [21] = assay: Induction of oxidative stress in human HCT-116 cells assessed as increase in NO level at 5 to 10 uM incubated for 24 hrs; type: functional, cell-based; settings: dose 5-10 µM
HCT-116 [22] = assay: Induction of apoptosis in human HCT-116 cells assessed as apoptotic cells at 10 uM incubated for 24 hrs in presence of tegafur by Annexin V-FITC/PI staining based flow cytometric analysis relative to control; type: functional
HCT-116 [23] = assay: Induction of cell cycle arrest in human HCT-116 cells assessed as accumulation of cells at S phase at 10 uM incubated for 24 hrs in presence of tegafur by flow cytometric analysis (reference value: 4.7 %); type: functional
HCT-116 [24] = assay: Anti-metastatic activity in human HCT-116 cells assessed as inhibition of cell migration by measuring wound healing rate at 10 uM incubated for 24 hrs in presence of tegafur by inverted fluorescence microscopic analysis relative to control; type: functional; parameters: scale not given: the % may be the effect or the level left
HCT-116 [25] = assay: Induction of apoptosis in human HCT-116 cells assessed as apoptotic cells at 10 uM incubated for 24 hrs in presence of 1-Deoxynojirimycin by Annexin V-FITC/PI staining based flow cytometric analysis relative to control; type: functional
HCT-116 [26] = assay: Induction of cell cycle arrest in human HCT-116 cells assessed as accumulation of cells at S phase at 10 uM incubated for 24 hrs in presence of 1-Deoxynojirimycin by flow cytometric analysis (reference value: 4.7 %); type: functional
HCT-116 [27] = assay: Anti-metastatic activity in human HCT-116 cells assessed as inhibition of cell migration by measuring wound healing rate at 10 uM incubated for 24 hrs in presence of 1-Deoxynojirimycin by inverted fluorescence microscopic analysis relative to control; type: functional; parameters: scale not given: the % may be the effect or the level left

SMILES | IC50 (HeLa) [µM] | Activity (HCT-116 [6]) [%] | IC50 (HCC1937) [µM] | IC50 (A549) [µM] | IC50 (L02) [µM] | IC50 (HCT-116 [8]) [µM] | Activity (HCT-116 [12]) [%] | logP at 24 h [13] | IC50 (HepG2) [µM] | Activity (HCT-116 [14]) [%] | IC50 (BGC-823) [µM] | IC50 (Alpha glucosidase) [µM] | selectivity ratio [20] | other results
O=c1c(F)cn(C2CCCO2)c(=O)n1CCCCCCCCCCCN1C[C@H](O)[C@@H](O)[C@H](O)[C@H]1CO (some centres not stated) | 13 | 49.31 | 9.14 | 6.34 | 19.7 | 1.37 | 69.8 | 1.02 | 7.72 | 9.42 | 4.35 | 2.76 | 14.4 | Activity (HCT-116 [1]): Active; Activity (HCT-116 [2]): Active; Activity (HCT-116 [3]): Active; Activity (HCT-116 [4]): Active; inhibition (HCT-116 [5]): Active; Activity (HCT-116 [7]): Active; Activity (HCT-116 [9]): Active; Activity (HCT-116 [10]): Active; Activity (Mitochondrial membrane): Active; Activity (HCT-116 [11]): Active; Activity (HCT-116 [15]): inactive; Activity (HCT-116 [16]): inactive; Ratio IC50 [17]: 73; Activity (HCT-116 [18]): Active; Activity (HCT-116 [19]): Active; Activity (HCT-116 [21]): Active
O=c1c(F)cn(C2CCCO2)c(=O)n1CCCCCCCCN1C[C@H](O)[C@@H](O)[C@H](O)[C@H]1CO (some centres not stated) | 26.8 |  | 19.7 | 19.4 | 29.3 | 7.32 |  | -0.65 | 14.8 |  | 12.5 | 15.09 | 4 | 
O=c1c(F)cn(C2CCCO2)c(=O)n1CCCCCN1C[C@H](O)[C@@H](O)[C@H](O)[C@H]1CO (some centres not stated) | 29.3 |  | 43.2 | 57.6 | 56.3 | 15.6 |  | -2.49 | 40.7 |  | 38.6 | 40.96 | 3.6 | 
OC[C@H]1NC[C@H](O)[C@@H](O)[C@@H]1O [DUVOGLUSTAT] | > 100 | 11.29 | > 100 | > 100 | > 100 | > 100 | 6.16 | -0.68 | > 100 | 51.91 | > 100 |  |  | Activity (HCT-116 [22]): 15.17%; Activity (HCT-116 [23]): 34.84%; Activity (HCT-116 [24]): 32%
O=c1[nH]c(=O)n(C2CCCO2)cc1F (configuration not stated) [TEGAFUR] | 96.1 | 43.81 | > 100 | > 100 | 23.5 | 88.6 | 8.99 |  | > 100 | 44.37 | 99.4 |  | 0.27 | Activity (HCT-116 [25]): 15.17%; Activity (HCT-116 [26]): 34.84%; Activity (HCT-116 [27]): 32%
